Measured values published in publication PMC10460844, “Real‐Time Monitoring of Multitarget Antimicrobial Mechanisms of Peptoids Using Label‐Free Imaging with Optical Diffraction Tomography” (Advanced Science, 2023).
Converted amounts (≈) assume the structure as drawn. Structures can show the parent of a compound that is named as a salt. Where two headings read alike, the source gives them in different places. Square brackets hold non-standard residues; d marks the D form. Peptide text beside a SMILES is read from it. Nspe = C[C@H](NCC(=O)O)c1ccccc1; Nlys = NCCCCNCC(=O)O

Assays:
rat erythrocytes = assay: Hemolysis assay; type: cell-based; conditions: for H max (100 µM): percentage of hemolysis at the highest concentration tested (100 µM), rat erythrocytes
Procedure, shortened: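 Washed Sprague-Dawley rat erythrocytes (10% suspension in PBS pH 7.4) mixed with peptoids (0–100 µM), 60 min at 37 °C; supernatant A540 expressed as % of 1% Triton X-100 lysis. HC10/HC50 are concentrations giving 10%/50% hemolysis; Hmax is hemolysis at 100 µM.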

S. aureus ATCC 25923 = type: cell-based, Staphylococcus aureus; conditions: mean of triplicate
Protocol: (§1) The antibacterial activity of the peptoids was evaluated against gram‐positive (Staphylococcus aureus, ATCC 25 923) and gram‐negative (Escherichia coli, ATCC 25 922) bacteria. […] The MIC of each peptoid was determined using a broth dilution assay. For each assay, the primary culture of either S. aureus or E. coli was grown overnight in cation‐adjusted Mueller Hinton broth 2 (MHB2) media at 37 °C with shaking. A secondary culture was prepared the next day, grown for 3–4 h, and then diluted in MHB2 media with a final concentration of 0.001% acetic acid and 0.02% bovine serum albumin to obtain a calculated optical density (OD) of 0.001. This corresponded to ≈2–5 × 10^5 colony‐forming units (CFU mL^−1) of bacteria. Using 96‐well polypropylene plates (Eppendorf, Hamburg, Germany), 100 µL of 2–5 × 10^5 CFU mL^−1 bacteria were added in triplicate for each peptoid. Each peptoid was assayed at six different concentrations in two‐fold serial dilutions. The maximum peptoid concentration was 25 µM. […] The MIC value determination was performed in triplicate. The MIC was defined as the lowest peptoid concentration that prevented turbidity during visual inspection.

E. coli ATCC 25922 [1] = type: cell-based, Escherichia coli; conditions: mean of triplicate
Protocol: as §1

[2] = test system: MRC-5 human lung fibroblast cells; type: cell-based; conditions: Table S3, counter-ion exchange series; MTS assay, 24 h
Protocol: 4. Cell culture and cytotoxicity test using MTS assay
(Seoul, South Korea), human keratinocytes (HaCaT) were provided by the Skin Research Institute R&D Center of Amore Pacific Company (Yongin, South Korea). All cells were grown in Dulbecco's modified Eagle’s medium (DMEM) supplemented with 10% fetal bovine serum at 37 °C in an atmosphere containing 5% CO2. The 3-(4,5-dimethylthiazol-2- […]
assays were used to determine the effects of peptoids on cell growth.[4] Aliquots (100 µL) of media containing 1.3×10^4 MRC-5 cells/mL or 3×10^4 HaCaT cells/mL were distributed into each well of a 96-well plate (Eppendorf, Hamburg, Germany). The cells were allowed to attach and were grown in a humidified atmosphere containing 5% CO2 at 37 °C for 24 h.
When the cell density reached approximately 70% confluency, the medium was replaced with serial dilutions of the peptoid stock in DMEM and incubated for an additional 24 h. At this point, 20 µL of the CellTiter 96 aqueous non-radioactive cell proliferation assay reagent (Promega, Madison, WI, USA), which contains the tetrazolium compound, was added to each well. Plates were incubated for 4 h at 37 °C to allow time for metabolism. The MTS-formazan products in viable cells were measured at 490 nm using a microplate reader, and the percentage of cell viability (%) was calculated by comparing readings to the values of untreated wells. Percentage values of cell viability were calculated as A/(A control)×100, where A is the absorbance of the test well and A control is the average absorbance of wells containing untreated cells. […]

E. coli ATCC 25922 [3] = assay: Thioflavin S fluorescence imaging of intracellular aggregation; type: cell-based; conditions: 29 and peptoid 1 at 4 × MIC, control peptides 2 × MIC
[4] = Analytical reversed-phase HPLC elution (hydrophobicity); type: physicochemical; conditions: Table 1; analytical RP-HPLC, SunFire C18 […] 250 mm, water/ACN + 0.1% TFA, 5% B 2 min then linear to 100% B over 30 min, 1 mL/min, UV 220 nm; used as measure of hydrophobicity
Procedure, shortened: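 Analytical reversed-phase HPLC on a C18 column (4.6 × 250 mm, 5 μm) at 1 mL/min, water/acetonitrile each with 0.1% TFA. Held at 5% B for 2 min, then linear to 100% B over 30 min and held 5 min, with UV detection at 220 nm; retention time (tR) serves as hydrophobicity measure.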

E. coli ATCC 25922 [5] = type: cell-based; conditions: ODT, 30 min treatment; buforin-II 25 µM, melittin 25 µM, 29 4 × MIC
Protocol: Three‐dimensional (3D) optical diffraction tomography (ODT) and fluorescence images of live bacterial cells were obtained using an HT‐2H Mach−Zehnder interferometric microscope, combining both ODT and fluorescence imaging into a single unit (Tomocube, Daejon, South Korea). 3D Fluorescence imaging was carried out, using three light sources (385, 470, and 565 nm) via serial fluorescence image acquisition in multiple planes followed by 3D deconvolution. 3D correlative imaging, using a combination of ODT and fluorescence imaging was performed using commercial software (TomoStudioTM, Tomocube) as described previously^[ [23c] ^] Bacterial cells were grown overnight and diluted (≈10^7 CFU mL^−1) in cation‐adjusted MHB2 media. The cells were loaded onto 50 mm imaging dishes with a #1.5H glass coverslip bottom (TomoDish, Tomocube) that were precoated with 0.01% (w/v) poly‐L‐lysine (Sigma‐Aldrich) in water. After 30 min incubation at room temperature, the coverslips were washed twice with PBS (pH 7.4) to remove unattached cells, and the media was replaced with PBS for the duration of the imaging. To monitor the change in bacterial morphology, bacterial cells were treated with a peptoid (or with control AMPs) in PBS containing FM4‐64 (10 µg mL^−1) or propidium iodide (10 µg mL^−1). To analyze 3D refractive index (RI) tomograms, individual bacteria were captured using ODT equipped with a digital micromirror device (Tomocube). In more detail, the light scattered by the bacterial cells was collected by an objective lens (NA = 1.2, water dipping, UPLSAPO 60XW, Olympus) and recorded by a digital image sensor (CMOS camera, FL3‐U313Y3M‐C, FLIR Systems). Using a field retrieval algorithm, the amplitude and phase images were retrieved from the obtained multiple holograms, and then the 3D RI distribution was determined.
The analysis tool in the TomoStudio software (Tomocube) was used to measure specific values, including the refractive index (RI) and the cell volume of bacteria. These values were determined from RI increments (RII) of 0.190 fL pg^−1, which is known as a representative value and was assumed to be the same for most proteins.^[ [46] ^]

E. coli ESBL 63103 = type: cell-based
K. pneumonia ESBL 61962 = type: cell-based
P. aeruginosa MDR-198 = type: cell-based
S. typhimurium SL 1344 = type: cell-based; conditions: SL 1344
E. coli ATCC 25922 [6] = assay: NPN uptake assay (outer membrane); type: cell-based; conditions: E. coli ATCC 25922, 5 mM HEPES pH 7.2, 10 µM NPN, fluorescence
Protocol: 14. In vitro biological assays […]
The ability of peptoids to increase the permeability of the outer membrane of Gram-negative bacteria was determined by measuring the incorporation of the NPN fluorescent dye into the outer membrane of E. coli ATCC 25922. Bacterial cells were suspended to a final concentration of OD600 = 0.05 in 5 mM HEPES buffer, pH 7.2, containing 5 mM KCN. Then […]
200 μL NPN dye was added to wells of a 96 well plate to produce a final concentration of 10 μM, and the background fluorescence was recorded (λex = 350 nm, λem = 420 nm). Aliquots of peptoids were added to the well, and fluorescence was recorded as a function of time until there was no further increase in fluorescence. Increases of the permeability of the outer membrane after the addition of peptoids was reflected by increased fluorescence values as a result of NPN incorporation into the membrane. […]

E. coli ML-35 cells = assay: ONPG hydrolysis assay (inner membrane); type: cell-based; conditions: 1.5 mM ONPG, 10 mM sodium phosphate pH 7.4, absorbance 405 nm
Protocol: The permeability of the inner membrane was determined using E. coli ML-35 cells […]
The intact bacterial inner membrane is non-permeable to o-nitrophenyl-β-D-galactopyranoside (OPNG), a chromogenic substrate of the β-galactosidase.
Following damage to the inner membrane, OPNG enters the cells and is metabolized by β-galactosidase creating a chromogenic […]. E. coli cells were washed in 10 mM sodium phosphate (pH 7.4) containing 100 mM NaCl and resuspended in the same buffer at a final concentration of OD600 = 0.5 containing 1.5 mM ONPG. The hydrolysis of ONPG and generation of o-nitrophenol over time were monitored as absorbance change at 405 nm following the addition of peptoids. […]

S. aureus MRSA C623 = type: cell-based
E. faecalis KCTC 3511 = type: cell-based; conditions: KCTC 3511
[7] = Table S3, counter-ion exchange series, 10% hemolysis in rat erythrocytes, mean of triplicate
[8] = Table S3, counter-ion exchange series, 50% hemolysis in rat erythrocytes, mean of triplicate
[9] = Table S3, counter-ion exchange series, hemolysis at 100 µM
[10] = Table S3, counter-ion exchange series
[11] = Table S3, counter-ion exchange series (TFA, HCl, AcOH salts)
[12] = Table S2, broth dilution, MHB2, 37 °C 24 h, max 25 µM

Row | SMILES | HC10 (rat erythrocytes; [7]) | HC50 (rat erythrocytes; [8]) | Hmax (100 µM) (rat erythrocytes; [9]) | MIC S. aureus ATCC25923 (S. aureus ATCC 25923; [10]) | MIC E. coli ATCC25922 (E. coli ATCC 25922 [1]; [11]) | LC50 MRC-5 [2] | H max (100 µM) (rat erythrocytes) | HPLC elution (%ACN) [4] | other results
1 | C[C@@H](c1ccccc1)N(CC(N)=O)C(=O)CN(C(=O)CN(CCCCN)C(=O)CN(C(=O)CN(C(=O)CN(CCCCN)C(=O)CN(C(=O)CN(C(=O)CN(CCCCN)C(=O)CN(C(=O)CN(C(=O)CNCCCCN)[C@@H](C)c1ccccc1)[C@@H](C)c1ccccc1)[C@@H](C)c1ccccc1)[C@@H](C)c1ccccc1)[C@@H](C)c1ccccc1)[C@@H](C)c1ccccc1)[C@@H](C)c1ccccc1 [1-AcOH] (H-[Nlys][Nspe][Nspe][Nlys][Nspe][Nspe][Nlys][Nspe][Nspe][Nlys][Nspe][Nspe]-NH2) | 25.0 µM | 78.6 µM | 58.2±1.7% | 3.1 µM (≈ 5.64 µg/mL) | 12.5 µM | 8.6 µM |  |  | 
2 | C[C@@H](c1ccccc1)N(CC(N)=O)C(=O)CN(C(=O)CN(CCCCN)C(=O)CN(C(=O)CN(C(=O)CN(CCCCN)C(=O)CN(C(=O)CN(C(=O)CN(CCCCN)C(=O)CN(C(=O)CN(C(=O)CNCCCCN)[C@@H](C)c1ccccc1)[C@@H](C)c1ccccc1)[C@@H](C)c1ccccc1)[C@@H](C)c1ccccc1)[C@@H](C)c1ccccc1)[C@@H](C)c1ccccc1)[C@@H](C)c1ccccc1 [1-HCl] (H-[Nlys][Nspe][Nspe][Nlys][Nspe][Nspe][Nlys][Nspe][Nspe][Nlys][Nspe][Nspe]-NH2) | 27.6 µM | 83.3 µM | 61.5±0.9% | 1.6 µM | 6.3 µM | 11.8 µM |  |  | 
3 | CC[C@H](C)[C@H](NC(=O)CN)C(=O)NCC(=O)N[C@@H](C)C(=O)N[C@H](C(=O)N[C@@H](CC(C)C)C(=O)N[C@@H](CCCCN)C(=O)N[C@H](C(=O)N[C@@H](CC(C)C)C(=O)N[C@H](C(=O)N[C@H](C(=O)NCC(=O)N[C@@H](CC(C)C)C(=O)N1CCC[C@H]1C(=O)N[C@@H](C)C(=O)N[C@@H](CC(C)C)C(=O)N[C@H](C(=O)N[C@@H](CO)C(=O)N[C@@H](Cc1c[nH]c2ccccc12)C(=O)N[C@H](C(=O)N[C@@H](CCCCN)C(=O)N[C@@H](CCCNC(=N)N)C(=O)N[C@@H](CCCCN)C(=O)N[C@@H](CCCNC(=N)N)C(=O)N[C@@H](CCC(N)=O)C(=O)N[C@@H](CCC(N)=O)C(N)=O)[C@@H](C)CC)[C@@H](C)CC)[C@@H](C)O)[C@@H](C)O)C(C)C)C(C)C [Melittin, reference compound] |  |  |  |  |  |  | 105.7 ± 17.6% | 55.4 %ACN | Th S fluorescence (intracellular biomass aggregation) (E. coli ATCC 25922 [3]): enhanced Th S fluorescence; change of cell volume (E. coli ATCC 25922 [5]): notable reduction in cell volume; change of mean RI value versus control cells (E. coli ATCC 25922 [5]): significantly increased mean RI values
4 | C[C@@H](c1ccccc1)N(CC(N)=O)C(=O)CN(CCCCN)C(=O)CN(CCCCN)C(=O)CN(C(=O)CN(C(=O)CN(CCCCN)C(=O)CN(C(=O)CN(C(=O)CN(CCCCN)C(=O)CN(CCc1c[nH]c2ccccc12)C(=O)CN(CCc1c[nH]c2ccccc12)C(=O)CNCCCCN)[C@@H](C)c1ccccc1)[C@@H](C)c1ccccc1)[C@@H](C)c1ccccc1)[C@@H](C)c1ccccc1 [peptoid 32] |  |  |  | 3.1 µM (≈ 5.78 µg/mL) | 6.3 µM |  | 15.9 ± 1.5% | 48.4 %ACN | MIC E. coli ESBL 63103 (E. coli ESBL 63103): 12.5 to 25 µM; MIC K. pneumonia ESBL 61962 (K. pneumonia ESBL 61962): 12.5 to 25 µM; Hmax (100 µM) (rat erythrocytes): 4.2±1.0%; HC10 (rat erythrocytes; pH 7.4): 77.7 µM; HC50 (rat erythrocytes; pH 7.4): > 100 µM; HC10 (rat erythrocytes; red cells of rat): > 100 µM; MIC P. aeruginosa MDR-198 (P. aeruginosa MDR-198): 6.3 to 12.5 µM; MIC S. aureus ATCC25923 (S. aureus ATCC 25923; [12]): 3.1 µM (≈ 5.78 µg/mL); MIC S. typhimurium SL 1344 (S. typhimurium SL 1344): 6.3 µM (≈ 11.7 µg/mL); outer membrane disruption (NPN uptake) (E. coli ATCC 25922 [6]): somewhat lower; inner membrane disruption (ONPG hydrolysis) (E. coli ML-35 cells): lower than that seen with more hydrophobic peptoids; MIC S. aureus MRSA C623 (S. aureus MRSA C623): 3.1 to 6.3 µM; MIC E. coli ATCC25922 (E. coli ATCC 25922 [1]; [12]): 6.3 µM (≈ 11.7 µg/mL); MIC E. faecalis KCTC 3511 (E. faecalis KCTC 3511): 6.3 µM (≈ 11.7 µg/mL)
